Assay results reported in patent US12128084B2, “Use of PAYCS in regulation of intestinal flora, metabolites, and brain neurotransmitters” (Sericulture and Agri-Food Research Institute, Guangdong …, priority 2022, dated 2024).

How the values were obtained:
Type in all cases: in vivo
[1] = test system: MDA, LDH, SOD, GP(x) in liver and serum; test: liver and serum oxidation indexes of amnesic mice
fecal metabolites = fecal metabolites of amnesic mice
Source text: The scores of variable importance in projection (VIP) for symbol ** and symbol *** are P<0.05, P<0.01, and P<0.001 respectively.

[2] = test system: IL-1β and TNF-α in liver and serum; test: liver and serum inflammatory indexes of amnesic mice
[3] = test system: mice with amnesia induced by scopolamine; test: behavioral test (jumping test, swimming test; training part and test part) in scopolamine-induced amnesic mice
Experimental: The mice were tested for a jumping test (FIG. 1A), swimming speed (FIG. 1), swimming distance (FIG. 1C), the number of crossings on the target platform (FIG. 1D), the number of crossings on the target quadrants (FIG. 1E), the escape latency and the error times (FIG. 1F) during the training. In the test part, the swimming distance, the swimming speed, number of crossings on target quadrant (FIG. 1G), the number of crossings on the target platform, and escape latency (H) were determined. In these figures, #: compared with the control group, P<0.05; compared with the control group, P<0.01; *: compared model group, P<0.05; **: compared with the model group, P<0.01.
FIG. 7 is an experiment designed to evaluate the effect of PAYCS-L (lower dose of SEQ ID NO: 1) and PAYCS-H (higher dose of SEQ ID NO: 1) on learning and memory function in mice with amnesia induced by scopolamine.

brain neurotransmitters = brain neurotransmitters of amnesic mice
intestinal microflora = test: 16S rRNA analysis of intestinal microflora of amnesic mice
Source text: The symbols * and ** represent P<0.05 and P<0.01, respectively.

[4] = scopolamine-induced amnesic mice
[5] = PAYCS-H (higher dose), scopolamine-induced amnesic mice

Pro-Ala-Tyr-Cys-Ser (PAYCS; sequence of the peptide ProAlaTyrCysSer)
antioxidant effect ([1]; PAYCS-H (higher dose)): good
oxidative stress in the liver and serum ([1]; PAYCS-H (higher dose)): reverses
liver and serum deficits ([1]; mouse, in vivo): positive effect
LDH level in serum [1, 4]: significantly reduce
MDA level in serum [1, 4]: significantly reduce
SOD content in the liver [1, 4]: significantly increase
fecal metabolites (fecal metabolites; PAYCS-H (higher dose)): re-modulates
memory-related metabolites (fecal metabolites; e.g. Panax notoginseng saponins and cholinergic acid): significantly up-regulated
memory-related metabolites (fecal metabolites; e.g. blumealactone C, thalictroidine, notoginsenoside M, 3a,7a,12b-trihydroxy-5b-cholanoic acid, sequiterpene lactone 326, helenalin, cholic acid): significantly up-regulated
fecal metabolites in amnesic mice (fecal metabolites; mouse, in vivo): regulatory effect
anti-inflammatory effect ([2]; PAYCS-H (higher dose)): good
inflammatory stress in the liver and serum ([2]; PAYCS-H (higher dose)): reverses
IL-1β in the liver [2, 5]: inhibit the increase
TNF-α in the liver [2, 5]: inhibit the increase
content of TNF-α in the liver ([2]; PAYCS-L (lower dose), scopolamine-induced amnesic mice, only TNF-α): reduces
cognitive function in the test part of the behavioral test ([3]; PAYCS-H (0.4 g/kg bw, higher dose), 3 weeks of treatment, scopolamine-induced mouse model): better improvement
memory enhancement in the training part of the behavioral test ([3]; PAYCS-L (0.2 g/kg bw, lower dose), 3 weeks of treatment, scopolamine-induced mouse model): better effect of memory enhancement
memory deficits in amnesic mice ([3]; PAYCS-L (lower dose)): partially reverses
scopolamine-induced memory impairment in mice ([3]; mouse, in vivo): remedies
neurotransmitters (brain neurotransmitters; e.g. Ach, GABA, Glu, HisA, Kyn): significantly up-regulated
brain neurotransmitters in amnesic mice (brain neurotransmitters; mouse, in vivo): regulatory effect
tryptophan metabolism-related neurotransmitters in the brain (brain neurotransmitters; mouse, in vivo): improves
relative abundance of Cacteroidaceae (intestinal microflora; 16S rRNA analysis): increased
relative abundance of Prevotellaceae (intestinal microflora; 16S rRNA analysis): increased
intestinal microorganisms (intestinal microflora; PAYCS-H (higher dose)): re-modulates
abundance of intestinal microorganism population in amnesic mice (intestinal microflora; PAYCS-L (lower dose)): reconstitutes
ratio of Bacteroidetes/Firmicutes (intestinal microflora; PAYCS-L (lower dose), 16S rRNA analysis): changed
